Organism: Rattus norvegicus
Test: Open TG-GATES - Regimen: Daily Repeat
Assay type: toxicity, organism-based, Sprague-Dawley
Parameters: regimen Daily Repeat, gender Male, age 6 weeks
Settings: in vivo, po, 0 mg/kg, route gavage, dose level Control; for APTT / Bas / Eos / Fbg / Hb / Ht / Lym / MCH / MCHC / MCV / Mono / Neu / PT / Plat / RBC / Ret / WBC: tissue Blood
[1] = 72 h, tissue Kidney, time 3 day
[2] = 72 h, tissue Plasma, time 3 day

## ClC(Cl)(Cl)Cl [CARBON TETRACHLORIDE]
72 h, time 3 day
  TERMINAL_BW: 223.2 g
  APTT: 17 s
  Bas: 0%
  Eos: 1%
  Fbg: 234.4 mg/dL
  Hb: 13.7 g/dL
  Ht: 40.1%
  Lym: 82.4%
  MCH: 21.8 pg
  MCHC: 34.2%
  MCV: 63.7 fL
  Mono: 2.8%
  Neu: 13%
  PT: 11.6 s
  Plat: 129.5 x10_4/uL
  RBC: 629.2 x10_4/ul
  Ret: 7.4%
  WBC: 96.4 x10_2/uL
[1]
  KIDNEY_L: 0.9 g
  KIDNEY_R: 1 g
  KIDNEY_TOTAL: 1.9 g
72 h, tissue Liver, time 3 day
  LIVER: 10.9 g
[2]
  A/G: 1.5
  ALP: 1075.2 IU/L
  ALT: 44.8 IU/L
  AST: 71.2 IU/L
  BUN: 16.2 mg/dL
  CRE: 0.4 mg/dL
  Ca: 10.9 mg/dL
  Cl: 103 meq/L
  DBIL: 0.08 mg/dL
  GLC: 206.4 mg/dL
  IP: 7.5 mg/dL
  K: 3.9 meq/L
  LDH: 208.6 IU/L
  Na: 140 meq/L
  PL: 155.4 mg/dL
  RALB: 3.2 g/dL
  TBIL: 0.1 mg/dL
  TC: 82.4 mg/dL
  TG: 86.6 mg/dL
  TP: 5.5 g/dL
  gamma-GTP: 1 IU/L
[…], time 7 day
  TERMINAL_BW: 257 g
  APTT: 18.3 s
  Bas: 0%
  Eos: 1%
  Fbg: 249.4 mg/dL
  Hb: 13.9 g/dL
  Ht: 40.1%
  Lym: 84.6%
  MCH: 21.6 pg
  MCHC: 34.8%
  MCV: 61.9 fL
  Mono: 2.6%
  Neu: 11.2%
  PT: 11.5 s
  Plat: 129.8 x10_4/uL
  RBC: 647.4 x10_4/ul
  Ret: 6.1%
  WBC: 111 x10_2/uL
[…], time 14 day
  TERMINAL_BW: 300.9 g
  APTT: 20.1 s
  Bas: 0%
  Eos: 0.8%
  Fbg: 239 mg/dL
  Hb: 14.6 g/dL
  Ht: 42.9%
  Lym: 80.8%
  MCH: 20 pg
  MCHC: 34%
  MCV: 58.9 fL
  Mono: 2.6%
  Neu: 15%
  PT: 11.5 s
  Plat: 124 x10_4/uL
  RBC: 728 x10_4/ul
  Ret: 3.9%
  WBC: 114.8 x10_2/uL
[…], time 28 day
  TERMINAL_BW: 389 g
  APTT: 22.7 s
  Bas: 0%
  Eos: 1%
  Fbg: 227.4 mg/dL
  Hb: 15.1 g/dL
  Ht: 43.7%
